Data set [1] relates to PD1 signal sequence plus 10 amino acids fused to Gaussia Luciferase (PD1-ss+10aa/Gaussia Luciferase). The experiment in a line: Dox Induced PD1-ss-Gluc Assay. Type of data set: cell-based. The following applies: 24 hr, 293FRT/TO; read-out: 24 hr Dox Inducible PD1ssGluc 293FRT/TO: Mean IC50. The gist of the method:
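Compound dilutions in DMSO/media containing doxycycline were applied to a stable, inducible 293 T-REx line carrying the luciferase fusion, then incubated at 37 °C, 5% CO2. Where stereochemistry is not drawn, values relate to isomer mixtures.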

For data set [2], the system named is full length TNFα (amino acids 1-233) fused to Gaussia Luciferase. In words: Dox Induced TNFα-FL-Gluc Assay. Type of data set: cell-based. The following applies: 24 hr, 293FRT/TO; read-out: 24 hr Dox Inducible TNFaFLGluc 293FRT/TO: Mean IC50. The gist of the method:
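Compounds diluted in DMSO/medium with doxycycline were incubated at 37° C, 5% CO2 with 293 T-REx cells stably carrying a Tet-regulated TNFα(1-233)-Gaussia luciferase construct. Data for structures drawn without stereochemistry refer to stereoisomer mixtures.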

Data set [3] concerns multiple myeloma cell line NCl-H929. The experiment in a line: H929 Cell Viability Assay. Type of data set: cell-based, human. The following applies: Homo sapiens, NCI-H929, 48 h, H929, read-out: 48 hr H929 Viability Celltiter-Glo: Mean EC50. The gist of the method:
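Viability was determined by CellTiter-Glo luminescence after a 48 h, 37 °C exposure of NCI-H929 cells to serial compound dilutions in medium containing 10% FBS. Where stereochemistry is not shown, values refer to a mix of stereoisomers.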
(In general: Cellular ATP, detected with luciferase, serves as a proxy for viable cell number.)

Data set [4] concerns multiple myeloma cell line U266B1. The experiment in a line: U266 Cell Viability Assay. The class given is cell-based, human. The following applies: Homo sapiens, U-266; 48 hr, U266; read-out: 48 hr U266 Viability Celltiter-Glo: Mean EC50. The gist of the method: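 Viability was measured by CellTiter-Glo luminescence after 48 h compound exposure at 37° C, 5% CO2. The cells were U266B1 multiple myeloma cells grown in RPMI 1640 plus 10% FBS. Where stereochemistry is not shown, values apply to the stereoisomer mixture.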

A short description of data set [5]: In Vitro Microsome Stability Assay (human). The class given is in vitro ADME. Conditions: human, 30 min, NADPH. The gist of the method: (§1)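 Species liver microsomes in potassium phosphate buffer were preincubated at 37 °C for 3–5 min with test compound (added from 0.25 mM DMSO stock), then started with NADPH. Samples at 0 and 30 min were quenched with acetonitrile containing internal standard and analysed by LC-MS/MS; % remaining at 30 min used analyte/IS AUC ratios relative to t=0.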

The nature of data set [6]: In Vitro Microsome Stability Assay (mouse). Type of data set: in vitro ADME. Conditions: mouse, 30 min, NADPH. The gist of the method: as §1
The nature of data set [7]: In Vitro Microsome Stability Assay (rat). Type of data set: in vitro ADME. Conditions: rat, 30 min, NADPH. The gist of the method: as §1
Data set [8] can be described thus: In Vitro Microsome Stability Assay (monkey). The class given is in vitro ADME. Conditions: monkey, 30 min, NADPH. The gist of the method:
as §1

A value given as a limit tells only on which side of the number the result lay.

For `C=C1CN(S(=O)(=O)c2ccc(N(C)C)cc2)CCCN(CC2CCCCC2)CCCN(S(=O)(=O)N2CCc3cc(Cl)ccc3C2)C1` [A53, 4-({5-[(6-chloro-1,2,3,4-tetrahydroisoquinolin-2-yl)sulfonyl]-9-(cyclohexylmethyl)-3-methylidene-1,5,9-triazacyclododecan-1-yl}sulfonyl)-N,N-dimethylaniline], the IC50 was 35.3 nM in data set [1] and 1010 nM in data set [2]. Also, the EC50 was 1720 nM in data set [3] and greater than 10300 nM in data set [4]. In data set [5], the “Liver Microsome Stability-% Left after 30 min w/ NADPH (%) Human” value (shortened to “Liver Microsome Stability-% Left … (%) Human”) is on record as 38%. Further, the “Liver Microsome Stability-% Left after 30 min w/ NADPH (%) Mouse” value (“Liver Microsome Stability-% Left … (%) Mouse” below) in data set [6] worked out at 39.2%. In addition, the “Liver Microsome Stability-% Left after 30 min w/ NADPH (%) Rat” value (from here on “Liver Microsome Stability-% Left … (%) Rat”) in data set [7] is 50.5%. The “Liver Microsome Stability-% Left after 30 min w/ NADPH (%) Monkey” value (“Liver Microsome Stability-% Left … (%) Monkey” for short) in data set [8] worked out at 39%.
`C=C1CN(S(=O)(=O)c2ccc(N(C)C)cc2)CCCN(CC2CCCCC2)CCCN(S(=O)(=O)N2CCc3c(Cl)cccc3C2)C1` [A54, 4-({5-[(5-chloro-1,2,3,4-tetrahydroisoquinolin-2-yl)sulfonyl]-9-(cyclohexylmethyl)-3-methylidene-1,5,9-triazacyclododecan-1-yl}sulfonyl)-N,N-dimethylaniline]: the figures for the IC50 in data set [1] and in data set [2] were 26.5 nM and 952 nM, respectively. Also, the EC50 in data set [3] is 1910 nM; in data set [4] it was greater than 25000 nM. Moreover, the “Liver Microsome Stability-% Left … (%) Human” value in data set [5] is reported as 33.8%. Further, the “Liver Microsome Stability-% Left … (%) Mouse” value in data set [6] is listed as 34.6%. Moreover, the “Liver Microsome Stability-% Left … (%) Rat” value in data set [7] is 42.4%. In addition, the “Liver Microsome Stability-% Left … (%) Monkey” value in data set [8] was determined as 30.5%.
Turning to `CN(C)c1ccc(S(=O)(=O)N2CCCN(CC3CCCCC3)CCCN(S(=O)(=O)N3CCC(c4ccccc4)CC3)CC(O)C2)cc1` (stereo not drawn) [A55, 9-(cyclohexylmethyl)-1-[4-(dimethylamino)benzenesulfonyl]-5-[(4-phenylpiperidin-1-yl)sulfonyl]-1,5,9-triazacyclododecan-3-ol], the IC50 is 1540 nM in data set [1] and greater than 25000 nM in data set [2]. Moreover, the EC50 in data set [3] and in data set [4] was greater than 25000 nM throughout. Besides, the “Liver Microsome Stability-% Left … (%) Human” value in data set [5] came out at 4.87%. In data set [6], the “Liver Microsome Stability-% Left … (%) Mouse” value is given as 1.18%. Besides, the “Liver Microsome Stability-% Left … (%) Rat” value in data set [7] is listed as 0.97%. Besides, the “Liver Microsome Stability-% Left … (%) Monkey” value in data set [8] is on record as 0.34%.
With `C=C1CN(S(=O)(=O)c2ccc(N(C)C)cc2F)CCCN(CC2CCCCC2)CCCN(S(=O)(=O)N2CCc3cc(Cl)ccc3C2)C1` [A56, 4-({5-[(6-chloro-1,2,3,4-tetrahydroisoquinolin-2-yl)sulfonyl]-9-(cyclohexylmethyl)-3-methylidene-1,5,9-triazacyclododecan-1-yl}sulfonyl)-3-fluoro-N,N-dimethylaniline], the values for the IC50 in data set [1] and in data set [2] were 32.8 nM and 1260 nM, respectively. For the same compound, the figures for the EC50 in data set [3] and in data set [4] were 1630 nM and greater than 25000 nM, respectively. Further, the “Liver Microsome Stability-% Left … (%) Human” value in data set [5] turned out to be 44.5%. For the same compound, the “Liver Microsome Stability-% Left … (%) Mouse” value in data set [6] came to 53.2%. Moreover, in data set [7], the “Liver Microsome Stability-% Left … (%) Rat” value stood at 57.3%. The “Liver Microsome Stability-% Left … (%) Monkey” value in data set [8] was found to be 42.6%.
Consider `C=C1CN(S(=O)(=O)c2ccc(N(C)C)cc2)CCCN(CC2CCCCC2)CCCN(S(=O)(=O)N2CCC(c3ccccc3Cl)CC2)C1` [A57, 4-[(5-{[4-(2-chlorophenyl)piperidin-1-yl]sulfonyl}-9-(cyclohexylmethyl)-3-methylidene-1,5,9-triazacyclododecan-1-yl)sulfonyl]-N,N-dimethylaniline], for which the IC50 was 73.4 nM in data set [1] and 7810 nM in data set [2]. The 50% effective concentration (EC50) in data set [3] and in data set [4] was greater than 25000 nM in each case. The “Liver Microsome Stability-% Left … (%) Human” value in data set [5] was 31.9%. Moreover, the “Liver Microsome Stability-% Left … (%) Mouse” value in data set [6] came out at 60.2%. In data set [7], the “Liver Microsome Stability-% Left … (%) Rat” value turned out to be 84%. In data set [8], the “Liver Microsome Stability-% Left … (%) Monkey” value came to 28.5%.
Regarding `C=C1CN(S(=O)(=O)c2ccc(N(C)C)cc2)CCCN(CC2CCCCC2)CCCN(S(=O)(=O)N2CCC(c3cccc(Cl)c3)CC2)C1` [A58, 4-[(5-{[4-(3-chlorophenyl)piperidin-1-yl]sulfonyl}-9-(cyclohexylmethyl)-3-methylidene-1,5,9-triazacyclododecan-1-yl)sulfonyl]-N,N-dimethylaniline], the IC50 worked out at 72.1 nM in data set [1] and 8500 nM in data set [2]. For the same compound, the EC50 in data set [3] and in data set [4] was greater than 25000 nM in each case. Moreover, the “Liver Microsome Stability-% Left … (%) Human” value in data set [5] is reported as 31.6%. Further, the “Liver Microsome Stability-% Left … (%) Mouse” value in data set [6] stood at 72.8%. For the same compound, the “Liver Microsome Stability-% Left … (%) Rat” value in data set [7] is 66.7%. Further, the “Liver Microsome Stability-% Left … (%) Monkey” value in data set [8] was 53.1%.
Regarding `C=C1CN(S(=O)(=O)c2ccc(N(C)C)cc2)CCCN(CC2CCCCC2)CCCN(S(=O)(=O)N2CCc3cc(F)ccc3C2)C1` [A59, 4-{[9-(cyclohexylmethyl)-5-[(6-fluoro-1,2,3,4-tetrahydroisoquinolin-2-yl)sulfonyl]-3-methylidene-1,5,9-triazacyclododecan-1-yl]sulfonyl}-N,N-dimethylaniline], the results for the IC50 in data set [1] and in data set [2] were 24.2 nM and 616 nM, respectively. The EC50 is 1440 nM in data set [3] and greater than 25000 nM in data set [4]. The “Liver Microsome Stability-% Left … (%) Human” value in data set [5] turned out to be 1.89%. In data set [6], the “Liver Microsome Stability-% Left … (%) Mouse” value came to 3.73%. The “Liver Microsome Stability-% Left … (%) Rat” value in data set [7] turned out to be 3.9%. Moreover, the “Liver Microsome Stability-% Left … (%) Monkey” value in data set [8] is on record as 1.94%.
Take `C=C1CN(S(=O)(=O)c2ccc(N(C)C)cc2)CCCN(CC2CCCCC2)CCCN(S(=O)(=O)N2CCc3cc(Br)ccc3C2)C1` [A60, 4-({5-[(6-bromo-1,2,3,4-tetrahydroisoquinolin-2-yl)sulfonyl]-9-(cyclohexylmethyl)-3-methylidene-1,5,9-triazacyclododecan-1-yl}sulfonyl)-N,N-dimethylaniline]: the IC50 in data set [1] turned out to be 18.5 nM; in data set [2], 886 nM. The EC50 was 1480 nM in data set [3] and greater than 25000 nM in data set [4]. The “Liver Microsome Stability-% Left … (%) Human” value in data set [5] is reported as 46.7%. Moreover, in data set [6], the “Liver Microsome Stability-% Left … (%) Mouse” value was 60.8%. Further, the “Liver Microsome Stability-% Left … (%) Rat” value in data set [7] amounted to 50.3%. Also, the “Liver Microsome Stability-% Left … (%) Monkey” value in data set [8] is given as 38.7%.
For the compound `COC1CN(S(=O)(=O)c2ccc(N(C)C)cc2)CCCN(CC2CCCCC2)CCCN(S(=O)(=O)N2CCC(c3ccccc3)CC2)C1` (stereo not drawn) [A61, 4-{[9-(cyclohexylmethyl)-3-methoxy-5-[(4-phenylpiperidin-1-yl)sulfonyl]-1,5,9-triazacyclododecan-1-yl]sulfonyl}-N,N-dimethylaniline], the IC50 in data set [1] is 956 nM; in data set [2] it was greater than 25000 nM. In addition, the EC50 in data set [3] and in data set [4] was greater than 25000 nM throughout. Also, in data set [5], the “Liver Microsome Stability-% Left … (%) Human” value is reported as 13.3%. Besides, the “Liver Microsome Stability-% Left … (%) Mouse” value in data set [6] was 17.9%. Also, in data set [7], the “Liver Microsome Stability-% Left … (%) Rat” value is on record as 19.6%. Besides, the “Liver Microsome Stability-% Left … (%) Monkey” value in data set [8] stood at 8.96%.

The term EC50 denotes the midpoint of the concentration-response curve.

Values taken from patent US11578055B2, “Triazacyclododecansulfonamide (“TCD”)-based protein secretion inhibitors” (KEZAR LIFE SCIENCES, priority 2018, dated 2023).
